Laboratory results as given in publication PMC8960621, “Solution speciation and human serum protein binding of indium(III) complexes of 8-hydroxyquinoline, deferiprone and maltol” (Journal of Biological Inorganic Chemistry, 2022).

Assays:
[1] = molecular target: T1, human serum albumin (HSA) (Homo sapiens, UniProt P02768); parameters: method as in PMID 25398250; conditions: cited from earlier work
T1 construct: purchased Sigma-Aldrich A8763

[2] = molecular target: T1, human serum albumin (HSA); test: HSA binding by membrane ultrafiltration-UV-vis; conditions: 2.5 equiv. protein

T1 sequence (P02768 25-609): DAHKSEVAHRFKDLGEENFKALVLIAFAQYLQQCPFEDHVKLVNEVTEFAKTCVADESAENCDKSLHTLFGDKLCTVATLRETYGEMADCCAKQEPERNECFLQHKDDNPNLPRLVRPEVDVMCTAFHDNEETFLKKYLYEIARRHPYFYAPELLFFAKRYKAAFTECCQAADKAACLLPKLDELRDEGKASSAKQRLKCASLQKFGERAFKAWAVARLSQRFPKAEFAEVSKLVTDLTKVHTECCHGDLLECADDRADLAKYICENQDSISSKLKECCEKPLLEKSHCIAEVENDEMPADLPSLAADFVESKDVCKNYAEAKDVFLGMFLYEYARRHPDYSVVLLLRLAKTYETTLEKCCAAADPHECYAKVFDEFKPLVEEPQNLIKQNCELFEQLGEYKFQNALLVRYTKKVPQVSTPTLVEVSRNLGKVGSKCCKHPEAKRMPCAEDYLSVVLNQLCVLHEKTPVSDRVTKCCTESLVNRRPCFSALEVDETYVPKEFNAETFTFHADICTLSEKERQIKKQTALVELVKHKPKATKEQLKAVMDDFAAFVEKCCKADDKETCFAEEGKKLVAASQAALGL

In the case of `[Ga+3].[O-]c1cccc2cccnc12.[O-]c1cccc2cccnc12.[O-]c1cccc2cccnc12` [GaQ3, Tris(8-Quinolinolato)gallium(III), reference compound], the “logK’ (HSA binding constant)” value [1] is listed as 4.04.
In the case of `Cc1c([O-])c(=O)ccn1C.Cc1c([O-])c(=O)ccn1C.Cc1c([O-])c(=O)ccn1C.[In+3]` [InD3], the “In(III) ion bound to the protein (deferiprone liberation)” value [2] was “ca. 7%” and the “complex bound to HSA” value [2] was “ca. 8%”.
